Experimental findings from PubChem BioAssay AID624258 (Broad Institute, 2012) are described below.

Activity calls are given as the source filed them. No rule for the calls is given here.

The subject of assay [1] is S. cerevisiae SKN7-toxicity growth rescue, plate reader. The assay can be described thus: SKN7 mediated toxicity in Saccharomyces cerevisiae, growth rescue counterscreen, dose confirmation (AID 624258).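 Also: growth read after three days of incubation at 30 °C.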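 As to growth rescue activity: 0% = median of neutral control wells.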 On the technique in general: Counterscreens check selectivity or assay interference.
Assay in assay [2]: as above
The settings on record: S. cerevisiae SKN7-toxicity growth rescue, plate reader; at 19.5 µM (top of the series).

In the case of `COc1ccc2c(c1)OC[C@H]1[C@H]2N2C(=O)c3cc(Cl)ccc3NC(=O)[C@@]2(C)[C@H]1c1ccccc1`, the AC40 in assay [1] is 10.8 µM.

`Cc1cccc(NS(=O)(=O)c2ccc(-c3cnc(C4CC4)o3)cc2)c1C`: the AC40 in assay [1] is 12.6 µM.

`O=C(Nc1cccc(-c2nc3ccccc3s2)c1)c1cccs1`: the AC40 in assay [1] was 1.34 µM.

`CC(C)(C)c1ccc(-n2nc(C#N)c(Cl)cc2=O)cc1`: in assay [1], the AC40 was 0.292 µM.

With `Cc1ccc(Nc2c(-c3ccccc3O)nc3cnccn23)cc1`, the AC40 in assay [1] is 8.08 µM.

With `COc1cccc(Oc2cncnc2-c2ccc(OC)cc2O)c1`, the AC40 in assay [1] is 18.9 µM.

As for `CCCOc1ccc(N2C(=O)CC(N3CCC(C(=O)OCC)CC3)C2=O)cc1` (stereo not given), in assay [1], the AC40 is 6.17 µM.

`CC(C)=CCc1c(O)cc(O)c2c1OC(c1ccc(O)cc1)CC2=O` (stereo not given): in assay [1], the AC40 is 12.7 µM.

As to `C(=N\Nc1nncc2ccccc12)/c1ccccn1`, in assay [1], the AC40 is 3.27 µM.

On to `CCc1cc(C(N)=O)c(NC(=O)c2ccc(OC)cc2)s1`, for which the AC40 in assay [1] is 6.02 µM.

For the molecule `COc1cc(NC(=O)CSc2ccc(-c3ccccn3)nn2)cc(OC)c1`, the AC40 in assay [1] is 0.894 µM.

For the molecule `COc1cccc(/C=N/NC(=O)c2cc(-c3cccn3C)n[nH]2)c1O`, in assay [1], the AC40 is 5.62 µM.

Regarding `CC(C)n1cnc2c(NCc3ccccc3)cc(Cc3ccc(F)cc3)cc21`, in assay [1], the AC40 is 3.4 µM.

Regarding `Cc1ccc(C(C)(C)C)cc1S(=O)(=O)Nc1ncnc2sccc12`, the AC40 in assay [1] is 1.15 µM.

`CCN=c1scc(C)n1/N=C/c1ccc(O)c(O)c1O`: in assay [1], the AC40 was 7.51 µM.

In the case of `COc1cccc(C(=O)N/N=C(/c2ccccc2)c2ccccn2)c1`, the AC40 in assay [1] was 3.84 µM.

For the molecule `O=C1CC(N2CCCCCC2)C(=O)N1c1ccc2c(c1)OCO2` (stereo not given), the AC40 in assay [1] was 6.75 µM.

For the molecule `Cc1c(C(=O)NCCSCc2cccc(C(F)(F)F)c2)cnn1-c1ccc(Cl)cc1`, in assay [1], the AC40 is 6.53 µM.

For `Cc1ccccc1OCc1nc2ccccc2n1C`, in assay [1], the AC40 is 7.54 µM.

In the case of `CC1=CC(=O)C=C(C)C1=NOS(=O)(=O)c1ccccc1`, the AC40 in assay [1] was 0.454 µM.

Turning to `COc1ccc(CSCC(=O)Nc2ccc(S(=O)(=O)N3CCCCCC3)cc2)cc1`, in assay [1], the AC40 is 6.93 µM.

For the molecule `Cc1ccc(C)c(S(=O)(=O)N2CCN(Cc3ccc(O)c4ncccc34)CC2)c1`, the AC40 in assay [1] is 5.93 µM.

As for `Cc1nc(SCC(=O)N2CCN(c3ccccc3)CC2)c2oc3ccccc3c2n1`, in assay [1], the AC40 was 3.53 µM.

Regarding `O=S(=O)(NCC1COc2ccccc2O1)c1ccc2ccccc2c1` (stereo not given), in assay [1], the AC40 is 8.68 µM.

For the molecule `CCCNC(=O)c1ccc2c(=O)c(O)c(-c3ccc(F)cc3)[nH]c2c1`, the AC40 in assay [1] is 2.31 µM.

As for `COc1ccc([C@H]2[C@H]3C=CC[C@@H](C)[C@@H]3C(=O)N2Cc2ccccc2)cc1Cl`, the AC40 in assay [1] was 4.57 µM.

Take `O=C(OCC(=O)C12CC3CC(CC(C3)C1)C2)c1ccc(O)cc1`: the growth rescue activity in assay [2] is -10.8% (inactive).

Turning to `O=c1c2ccccc2c(-c2ccc(O)cc2)nn1-c1cccc(C(F)(F)F)c1`, the growth rescue activity in assay [2] was -88.1% (inactive).

For the molecule `S=C(NC1CCCC1)N1CCN(c2cccc(Cl)c2)CC1`, the growth rescue activity in assay [2] is 13.6% (inactive).

As to `Cc1cccc(Oc2cnn(C(C)(C)C)c(=O)c2Cl)c1`, the growth rescue activity in assay [2] was 1.29% (inactive).

Regarding `CC(C)(C)c1ccc(C(=O)NC(=S)NNC(=O)c2cccs2)cc1`, in assay [2], the growth rescue activity was -72.5% (inactive).

Take `Oc1ccc(N=Nc2ccc3c(c2)OCCO3)c2cccnc12`: in assay [2], the growth rescue activity is -42.4% (inactive).

As to `CC1=C(C)C(=O)C(CCCCC#CCCCC#CCO)=C(C)C1=O`, the growth rescue activity in assay [2] is -34.8% (inactive).

Turning to `CCCSC(=S)c1c(C)[nH]n(-c2ccccc2)c1=O`, the growth rescue activity in assay [2] is -53% (inactive).

In the case of `O=C1C=C(N(CCO)Cc2ccccc2)c2ccccc2C1=O`, in assay [2], the growth rescue activity is 12.2% (inactive).

As for `C=CCOC(Cn1ccnc1)c1ccc(Cl)cc1Cl` (stereo not given), the growth rescue activity in assay [2] is -40.8% (inactive).

Take `Oc1c(C(Nc2cccc(C(F)(F)F)c2)c2ccncc2)ccc2cccnc12` (stereo not given): the growth rescue activity in assay [2] was -60.6% (inactive).

For `COC(=O)C1=NN(C(=O)c2cccc(Br)c2)C(O)(c2ccc(Cl)cc2)C1` (stereo not given), the growth rescue activity in assay [2] is -17.5% (inactive).

For `CC(C)(C)OC(=O)N1CCC(c2cc(-c3cccs3)n[nH]2)CC1`, the growth rescue activity in assay [2] is -58.6% (inactive).

As to `COC(=O)COC(=O)c1ccccc1NC(=O)c1ccccc1`, the growth rescue activity in assay [2] was -40.9% (inactive).

Regarding `O=C(O)c1c(NC(=O)N2CCCC2)sc2c1CCCC2`, the growth rescue activity in assay [2] is -88% (inactive).

On to `O=C(O)c1ccccc1NC(c1ccccc1)c1ccc2cccnc2c1O` (stereo not given), for which the growth rescue activity in assay [2] was -59.1% (inactive).

Regarding `O=C(NOC(=O)c1ccccc1)c1ccccc1`, the growth rescue activity in assay [2] was -77.5% (inactive).

As to `C[C@]12CC[C@H](O)CC1=CCC1C2CC[C@@]2(C)C1CC[C@@H]2NC(=O)[C@@H](N)Cc1ccccc1` (stereo not given in full), the growth rescue activity in assay [2] was 15.7% (inactive).

`CC(C)(CN1CCc2ccccc2C1)NS(=O)(=O)c1ccc(Cl)cc1`: the growth rescue activity in assay [2] was -9.34% (inactive).

Turning to `CCOC(=O)c1c(C)[nH]c2c1-c1ccccc1C(=O)C2=O`, the growth rescue activity in assay [2] was -17.4% (inactive).

Take `Cn1cc(SCC(=O)Nc2nc3ccccc3s2)c2ccccc21`: the growth rescue activity in assay [2] was -62.4% (inactive).

`COc1ccc(-c2oc3ccccc3c2C#Cc2cncn2C)cc1`: the growth rescue activity in assay [2] is -49.1% (inactive).

Regarding `O=C(O)CSc1cc(NS(=O)(=O)c2ccc(Br)cc2)c2ccccc2c1O`, the growth rescue activity in assay [2] is 30.5% (inactive).

In the case of `CCc1ccc(S(=O)(=O)N(C(=O)c2ccncc2)c2ccc(OC(=O)c3ccncc3)cc2)cc1`, in assay [2], the growth rescue activity was -42.7% (inactive).

With `COc1ccc(N/N=C(\C#N)C(N)=O)cc1`, the growth rescue activity in assay [2] was -58.5% (inactive).

Consider `CCOc1ccc(S(=O)(=O)Nc2cc(SCC(=O)O)c(O)c3ccccc23)cc1`, for which, in assay [2], the growth rescue activity is 21.7% (inactive).

In the case of `CC(CNC(=O)COc1ccccc1)OC(=O)Nc1ccc(Cl)c(Cl)c1` (stereo not given), in assay [2], the growth rescue activity was -93.2% (inactive).

`N#Cc1c(-c2ccc(Cl)cc2)nc2n(c1=O)CCCS2`: the growth rescue activity in assay [2] was 35.4% (inactive).

With `O=S(=O)(c1c(Cl)sc(Cl)c1Br)N1CCCC1`, in assay [2], the growth rescue activity was -25% (inactive).

In the case of `O=C(N/N=C/c1ccc[nH]1)c1sc2ccccc2c1Cl`, the growth rescue activity in assay [2] is -72.2% (inactive).

Turning to `O=C1C(=O)c2ccccc2C(O)=C1CC=C(Cl)Cl`, in assay [2], the growth rescue activity is -94.4% (inactive).

With `Cc1nc2ccc(C(C(F)(F)F)(C(F)(F)F)C(F)(F)F)cc2[nH]1`, in assay [2], the growth rescue activity is -85.7% (inactive).

On to `Cc1nc(SCc2ccc(OCCC(C)C)cc2)n[nH]1`, for which the growth rescue activity in assay [2] was -93.3% (inactive).

For `CC1CCN(c2nc(-c3ccncc3)nc3ccccc23)CC1`, the growth rescue activity in assay [2] was -17.2% (inactive).

For `CC1(OC(=O)CCc2ccccc2)C(=O)C=C2C=C(c3ccc(C#N)cc3)N(Cc3ccco3)C=C2C1=O` (stereo not given), the growth rescue activity in assay [2] was 3.67% (inactive).

`Cc1cc(Cl)ccc1C(=O)C1CCCN(C(=O)c2cncs2)C1` (stereo not given): the growth rescue activity in assay [2] was -54.3% (inactive).

In the case of `COc1ccc(OC)c(-c2c3cc(O)c(=O)cc-3oc3cc(O)c(O)cc23)c1`, the growth rescue activity in assay [2] is 26.2% (inactive).

For `Cc1ccc(Nc2cc(C)nn2-c2nc(C)cc(C)n2)cc1`, in assay [2], the growth rescue activity is -73.3% (inactive).

`COc1cccc(Nc2nc(-c3cccs3)nc3ccccc23)c1`: the growth rescue activity in assay [2] was -45.7% (inactive).
